From US7507792B2, “MDA-7 proteins and methods of use thereof” (The Trustees of Columbia University In The City of New York, priority 1993, dated 2009)
Like-named read-outs stand apart in the source and are kept apart here.

How the values were obtained:
Assay type in all cases: cell-based, human
mda-6 (WAF1/CIP1/SDI1) [1] = test: Induction of mda-6 (WAF1/CIP1/SDI1) expression in HL-60 cells (Northern blotting, RT-PCR); conditions: CHX 10 μg/ml 1, 3, 6 or 10 h, without or with TPA 3 nM
Description: HL-60 cells were originally provided by Dr. R. C. Gallo (National Cancer Institute, Bethesda, Md.) (Collins et al., 1978; Huberman & Callaham, 1979). HL-60 cells designated HL-525 were derived by cloning HL-60 cells after subculturing 102 times in the presence of increasing concentrations (up to 3 μM) of TPA at 5- to 8-day intervals (Homma et al., 1986; Mitchell et al., 1986). […] Prior to the experiments described in this study, the HL-525 cells were subcultured more than 20 times in the absence of TPA. Cells were grown in 100-mm tissue culture dishes in RPMI 1640 medium supplemented with 20% fetal bovine serum, penicillin (100 units/ml) and streptomycin (100 μg/ml) (Grand Island Biological Co., NY) at 37° C. in an atmosphere of 5% CO2 in air in a humidified incubator. The 1,25-(OH)2D3(Vit D3) and TPA were dissolved in a final concentration of 0.01% DMSO, and all-trans retinoic acid (RA) was dissolved in 0.1% DMSO in culture medium. […]
RNA was purified by centrifugation through a CsC1 cushion as described by Chirgwin et al. (1979). […] Following hybridization, the filters were washed and exposed for autoradiography (Reddy et al., 1991; Su et al., 1991; Jiang et al., 1992). mda-6 and GAPDH gene expression were also determined by reverse transcription-polymerase chain reaction (RT-PCR) as described (Adollahi et al. 1991; Lin et al., 1994). […]

mda-6 (WAF1/CIP1/SDI1) [2] = conditions: HL-525; CHX 10 μg/ml 1, 3, 6 or 10 h, without or with TPA 3 nM
Description: HL-60 cells were originally provided by Dr. R. C. Gallo (National Cancer Institute, Bethesda, Md.) (Collins et al., 1978; Huberman & Callaham, 1979). HL-60 cells designated HL-525 were derived by cloning HL-60 cells after subculturing 102 times in the presence of increasing concentrations (up to 3 μM) of TPA at 5- to 8-day intervals (Homma et al., 1986; Mitchell et al., 1986). […] Prior to the experiments described in this study, the HL-525 cells were subcultured more than 20 times in the absence of TPA. Cells were grown in 100-mm tissue culture dishes in RPMI 1640 medium supplemented with 20% fetal bovine serum, penicillin (100 units/ml) and streptomycin (100 μg/ml) (Grand Island Biological Co., NY) at 37° C. in an atmosphere of 5% CO2 in air in a humidified incubator. The 1,25-(OH)2D3(Vit D3) and TPA were dissolved in a final concentration of 0.01% DMSO, and all-trans retinoic acid (RA) was dissolved in 0.1% DMSO in culture medium. […] Control cultures were treated with DMSO at a final concentration of 0.1% in culture medium. For experiments designed to test the effect of DMSO on HL-60 and HL-525 cells, DMSO was added to tissue culture medium at a final concentration of 1%. Stock solutions of CHX (10 mg/ml) were prepared in culture medium. CHX was added at a final concentration of 10 μg/ml. To examine a requirement for protein synthesis on mda-6 gene expression, HL-60 or HL-525 cells were seeded into 150 mm Petri dishes (5×10^5 cells/ml) in 30 ml of medium. CHX was added to a final concentration of 10 μg/ml 15 min prior to the addition of TPA to 3 nM. Cells were harvested at various times after addition of TPA for subsequent RNA isolation and analysis.
RNA was purified by centrifugation through a CsC1 cushion as described by Chirgwin et al. (1979). Ten μg of RNA was denatured with glyoxal/DMSO, electrophoresed on 1.0% agarose gels, transferred to nylon membranes, hybridized to a ^32P-labeled mda-6 probe (Jiang and Fisher, 1993) and then after stripping the membrane hybridized to a ^32P-labeled rat GAPDH probe (Fort et al., 1985), as described previously (Reddy et at., 1991; Su et al., 1991; Jiang et al., 1992). Following hybridization, the filters were washed and exposed for autoradiography (Reddy et al., 1991; Su et al., 1991; Jiang et al., 1992). mda-6 and GAPDH gene expression were also determined by reverse transcription-polymerase chain reaction (RT-PCR) as described (Adollahi et al. 1991; Lin et al., 1994). Total cytoplasmic RNA was treated with 0.5 units DNase (Boehringer-Mannheim Biochemicals)/μg RNA in 15% glycerol, 10 mM Tris, pH 7.5, 2.5 mM MgCl2, 0.1 mM EDTA, 80 mM KC1, 1 mM CaCl2 and 1 unit/ml RNasin (Promega) at 30° C. for 10 min. RNA was extracted with phenol-chloroform, precipitated with sodium acetate/ethanol and RNA pellets were resuspended in diethylpyrocarbonate-treated H2O. One μg of total RNA was reverse transcribed with 200 units of murine leukemia virus reverse transcriptase (Bethesda Research Laboratories) in 20 μl containing 1 mM deoxyribonucleotide triphosphates, 4 mM MgCl2, 10 mM Tris, pH 8.3, 50 mM KC1, 0.001% gelatin and 0.2 μg oligo-dT primer. Samples were diluted to 100 μl with buffer containing 0.2 mM deoxyribonucleotide triphosphates, 2 mM MgCl2, 10 mM Tris, pH 8.3, 50 mM KC1 and 0.001% gelatin. […]

[3] = system: MDA-6 (WAF1/CIP1/SDI1) protein; test: Immunoprecipitation of MDA-6 (WAF1/CIP1/SDI1) protein in HL-60 cells; conditions: TPA, DMSO (1%) or RA (1 μM), 12, 24, 48 and 72 h tested
Description: Immunoprecipitation analyses were performed as described previously (Duigou et al., 1991; Su et al. 1993). Logarithmically growing HL-60 cells were either untreated or treated for 12, 24, 48 or 72 h with TPA ([…]), RA (1 μM) or DMSO (1%) in 10-cm plates. Cultures were starved of methionine for 1 h at 37° C. in methionine-free medium, cells were concentrated by pelleting and labeled for 4 h at 37° C. in 1 ml of the same medium with 100 μCi of [^35S] (NEN; Express ^35S). After labeling, the cells were washed twice with ice-cold phosphate-buffered saline and lysed for 1 h on ice by the addition of RIPC (20 mM Tris-base, pH 7.5, 500 mM NaCl, 0.05% Nonidet P-40, 100 μg/ml phenylmethylsulfonyl fluoride and 0.02% sodium azide). The lysate was clarified by centrifugation in an Eppendorf microfuge at 10,000×g for 10 min at 4° C. Samples containing 4×10^6 counts were incubated with 2 μg of WAF1/CIP1 (C-19) (Santa Cruz Biotechnology) (or MDA-6 peptide-derived) rabbit polyclonal IgG or actin monoclonal antibody (Oncogene Sciences) with rocking at 4° C. for 24 h. The next day, 30 μl (packed volume) of protein G-agarose (Oncogene Sciences) was added to each tube, and incubation with rocking at 4° C. continued for another hour. The protein G pellets were then washed five times with 1 ml of ice-cold RIPC:phosphate-buffered saline (1:1, v/v). Thirty μl of sodium dodecyl sulfate-polyacrylamide gel electrophoresis buffer were added to the pellets, and the sample was heated at 87° C. for 3 min. The samples were loaded onto an 10% polyacrylamide gel and run overnight at 40 V. The gel contained Rainbow protein markers (Amersham) for sizing. Gels were fixed with 10% acetic acid plus 10% methanol for 30 min, incubated in DMSO for 30 min, incubated with 10% 2,5-diphenyloxazole in DMSO for 30 min, washed three times with cold water (10 min each), dried and exposed to film.

Row | SMILES | mda-6 expression in the presence of cycloheximide (mda-6 (WAF1/CIP1/SDI1) [1]) | mda-6 expression in the presence of cycloheximide (mda-6 (WAF1/CIP1/SDI1) [2]) | time of treatment at which MDA-6 protein is detected [3] [h]
1 | C[C@@H]1C[C@@H]([C@H](O)CC2CC(=O)NC(=O)C2)C(=O)[C@@H](C)C1 [CHX, cycloheximide] | induction of mda-6 | induces mda-6 expression | –
2 | C[S+](C)[O-] [DMSO, dimethyl sulfoxide] | – | – | 48
